According to US20120219615A1, “Therapeutic Use of a TLR Agonist and Combination Therapy” (The Trustees of the University of Pennsylvania, priority 2010, published 2012):

Target: T1, TLR3 (Homo sapiens, UniProt O15455)
T1 sequence (O15455 24-904): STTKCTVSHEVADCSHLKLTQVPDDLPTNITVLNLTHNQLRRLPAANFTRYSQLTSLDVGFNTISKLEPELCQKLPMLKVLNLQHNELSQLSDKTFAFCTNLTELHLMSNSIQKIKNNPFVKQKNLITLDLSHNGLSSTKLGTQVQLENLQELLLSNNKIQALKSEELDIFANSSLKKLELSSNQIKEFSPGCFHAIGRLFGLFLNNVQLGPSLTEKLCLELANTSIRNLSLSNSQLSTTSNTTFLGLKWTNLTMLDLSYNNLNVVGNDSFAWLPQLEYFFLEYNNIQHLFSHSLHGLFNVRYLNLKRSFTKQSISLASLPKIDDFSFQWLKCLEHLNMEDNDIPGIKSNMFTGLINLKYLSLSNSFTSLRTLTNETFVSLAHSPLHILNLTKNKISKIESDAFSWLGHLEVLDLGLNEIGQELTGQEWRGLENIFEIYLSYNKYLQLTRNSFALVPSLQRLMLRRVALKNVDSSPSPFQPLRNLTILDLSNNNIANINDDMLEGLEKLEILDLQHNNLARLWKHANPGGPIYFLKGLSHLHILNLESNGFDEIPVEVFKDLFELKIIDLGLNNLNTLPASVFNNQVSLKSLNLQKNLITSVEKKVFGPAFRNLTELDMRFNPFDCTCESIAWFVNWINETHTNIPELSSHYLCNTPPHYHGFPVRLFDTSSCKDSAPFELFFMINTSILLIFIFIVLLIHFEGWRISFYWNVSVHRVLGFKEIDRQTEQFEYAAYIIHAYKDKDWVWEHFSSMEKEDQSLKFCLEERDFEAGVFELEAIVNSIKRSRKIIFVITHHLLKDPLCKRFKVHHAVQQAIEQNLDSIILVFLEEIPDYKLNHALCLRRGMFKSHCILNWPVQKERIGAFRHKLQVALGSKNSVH
Assay: Activity on TLR3
Assay type: cell-based
Conditions: concentrations up to 25 μM
Experimental: The half-maximal effective concentration (EC50) for VTX-2337 activation of TLR8 and TLR7 was assessed in peripheral blood mononuclear cells (PBMCs) from 15 healthy donors and also in HEK293 cells transfected with TLR8 or TLR7 and an NF-κB driven reporter gene. […] Also it was observed that VTX-2337 had no activity on TLR2, TLR3, TLR4, TLR5, TLR6, or TLR9 at concentrations up to 25 μM.

CCCN(CCC)C(=O)C1=Cc2ccc(-c3ccc(C(=O)N4CCCC4)cc3)cc2N=C(N)C1 [VTX-2337, 2-amino-N,N-dipropyl-8-(4-(pyrrolidine-1-carbonyl)phenyl)-3H-benzo[b]azepine-4-carboxamide]
activity on TLR3: no activity
